Test results as given in article PMC3871529, “At a Supra-Physiological Concentration, Human Sexual Hormones Act as Quorum-Sensing Inhibitors” (PLoS ONE, 2013).

System: A. tumefaciens NT1(pZLR4) traG-lacZ reporter fusion
Experiment: QSI activity on A. tumefaciens AHL-bioindicator (traG-lacZ β-galactosidase)
Assay type: cell-based, Agrobacterium tumefaciens
Details: for QSI hit in library screening: second screening: compounds at 5 µg/ml, C8-HSL 10 nM, A. tumefaciens biosensor
Procedure: Two bacterial QS-signal biosensors were used. Chromobacterium violaceum CV026 [41] was grown in Luria-Bertani modified (LBm) medium, in which the NaCl concentration was 5 g/l instead of 10 g/l. Agrobacterium tumefaciens NT1(pZLR4) was grown in AB minimal medium supplemented with mannitol (0.2%). After supplementation with appropriate AHL, each of the QS-biosensors expresses a reporting activity, which is the production of the pigment violacein in C. violaceum CV026 and that of β-galactosidase from the transcriptional fusion traG::lacZ in A. tumefaciens NT1(pZLR4).
When the screening was performed, the chemical library of the Institut de Chimie des Substances Naturelles (ICSN, Gif-sur-Yvette, France) contained more than 3500 synthetic and natural compounds, which were individually dissolved in dimethylsulfoxide (DMSO) at 1mg/ml and stored in 96 microwell plates. A first screening was performed by mixing biosensor CV026 with the AHL hexanoylhomoserine lactone (C6-HSL) at 0.5 µM and the tested compounds at 50 µg/ml. Final volume was adjusted to 100 µl with a synthetic medium (10% LBm and 0.4% sucrose). After 24 hours of incubation at 30°C, the presence or absence of violacein pigment was quoted by visual reading. […] Final volume was adjusted to 100 µl by the addition of AB minimal medium supplemented with mannitol (0.2%) and TY medium (10%). After 4 hours of incubation at 30°C, β-galactosidase activity was measured in A. tumefaciens cultures as previously described. In the two screenings, 4-nitropyridine-N-oxide (4-NPO) was used as a QSI reference. […]

With “3-Hydroxy-13-methyl-6,7,8,9,11,12,13,14,15,17-decahydro-cyclopenta[a] phenanthren-16-one [Compound 729, reference compound]” the “QSI hit in library screening” value was “hits” and the IC50 (β-galactosidase activity of Agrobacterium biosensor in presence of AHL (C8-HSL 10 nM), QSI 1.5 to 100 µg/ml) was 75 µg/mL.
In the case of `CN(C)CCc1ccc(O)cc1` [Compound 3499, hordenine], the inhibition at 100 µg/mL (Agrobacterium tumefaciens, read-out: inhibition (%) at 100 µg/ml) is reported as 19% and the “QSI hit in library screening” value is reported as “hits”.
